Source: PMC7782499, “Progerinin, an optimized progerin-lamin A binding inhibitor, ameliorates premature senescence phenotypes of Hutchinson-Gilford progeria syndrome” (Communications Biology, 2021)

Columns and labels:
[1] = Plasma protein binding, human; format: in vitro ADME; conditions: human, plasma
Method: (§1) At pre-set time-points, blood concentration of JH4 was determined by LC-MS/MS analysis[22],[23]. Other chemicals were also tested using similar protocol. In vitro ADME studies (plasma protein binding, CYP inhibition, microsomal stability, plasma stability, and hERG inhibition) were performed by New Drug Development Center (Daegu, Korea) using standard protocols[24],[25].

HGPS cells = experiment: RT-PCR of progerin/prelamin A, CENP-A, IL-6, IL-8, BRCA1 transcripts; format: cell-based, human
Method: For RT-PCR, total cellular RNA was extracted using RNA extraction kit (Qiagen). Gene expression studies were performed using cDNA synthesized from total RNA with MMLV RT (Invitrogen, Carlsbad, USA) and random hexamers. PCR from genomic DNA was perform using DiaStar Taq DNA polymerase (SolGent, Daejeon, Korea) and 50 ng of cDNA. Wild-type prelamin A cDNA was synthesized by PCR amplification using a forward primer, 5′-[…]-3′ and a reverse primer, 5′-[…]-3′. The thermal cycling conditions were as follows: 94°C for 3 min (activation), 94°C for 1 min (denaturation), 61°C for 1 min (annealing) and 72°C for 42 sec (extension) up to 35 cycles. The PCR products were analyzed through 2% agarose electrophoresis and DNA was visualized by ethidium bromide staining and UV photography. Levels of other transcripts were also performed with the following oligonucleotide primers: CENP-A, 5′-[…]-3′ and 5′-[…]-3′; BRCA1, 5′-[…]-3′ and 5′-[…]-3′; IL-6, 5′-[…]-3′ and 5′-[…]-3′; IL-8, 5′-[…]-3′ and 5′-[…]-3′ and GAPDH 5′-[…]-3′ and 5′-[…]-3′.
Fig. S3. Chemical screening with JH4 derivatives (a total of 53 chemicals except JH010 and SLC -D011 were used). A. Summarized tables for effects of JH4 derivatives. ‘+’ means s t re ngt h of binding affinity or expression level after treatment of chemicals. […]

CYP2D6 = CYP2D6 (Homo sapiens, UniProt P10635); experiment: CYP inhibition, CYP2D6; format: in vitro ADME
Sequence of CYP2D6 (P10635 whole entry): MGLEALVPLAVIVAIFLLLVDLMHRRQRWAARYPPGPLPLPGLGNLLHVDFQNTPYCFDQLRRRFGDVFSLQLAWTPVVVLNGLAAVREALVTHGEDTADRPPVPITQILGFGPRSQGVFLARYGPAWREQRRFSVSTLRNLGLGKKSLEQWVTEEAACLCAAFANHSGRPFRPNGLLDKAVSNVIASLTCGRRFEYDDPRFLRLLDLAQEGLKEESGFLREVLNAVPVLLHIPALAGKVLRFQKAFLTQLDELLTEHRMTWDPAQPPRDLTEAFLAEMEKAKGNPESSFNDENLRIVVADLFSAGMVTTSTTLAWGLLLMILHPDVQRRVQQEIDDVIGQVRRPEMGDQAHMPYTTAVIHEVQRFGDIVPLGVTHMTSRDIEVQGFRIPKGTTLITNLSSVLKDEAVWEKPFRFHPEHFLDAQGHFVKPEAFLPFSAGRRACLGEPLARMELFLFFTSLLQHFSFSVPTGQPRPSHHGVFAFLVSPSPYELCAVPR
Method: as §1

CYP1A2 = biological target: T1, CYP1A2 (Homo sapiens, UniProt P05177); experiment: CYP inhibition, CYP1A2; format: in vitro ADME
T1 sequence (P05177 1-516): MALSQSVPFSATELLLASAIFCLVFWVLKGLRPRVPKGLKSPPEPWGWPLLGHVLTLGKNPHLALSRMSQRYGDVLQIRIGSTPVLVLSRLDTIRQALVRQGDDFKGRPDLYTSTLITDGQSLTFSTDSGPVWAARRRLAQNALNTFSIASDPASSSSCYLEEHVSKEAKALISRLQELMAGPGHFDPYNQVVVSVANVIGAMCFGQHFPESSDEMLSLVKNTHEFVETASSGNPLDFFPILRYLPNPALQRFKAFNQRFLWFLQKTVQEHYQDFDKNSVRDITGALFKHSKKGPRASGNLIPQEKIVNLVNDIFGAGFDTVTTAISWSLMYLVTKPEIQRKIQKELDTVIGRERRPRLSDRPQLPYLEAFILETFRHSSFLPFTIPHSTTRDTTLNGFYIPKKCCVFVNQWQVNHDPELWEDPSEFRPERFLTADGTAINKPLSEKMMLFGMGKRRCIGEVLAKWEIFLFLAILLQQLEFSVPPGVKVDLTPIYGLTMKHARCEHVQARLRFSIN
Method: as §1

CYP2C19 = CYP2C19 (Homo sapiens, UniProt P33261); experiment: CYP inhibition, CYP2C19; format: in vitro ADME
Sequence of CYP2C19 (P33261 whole entry): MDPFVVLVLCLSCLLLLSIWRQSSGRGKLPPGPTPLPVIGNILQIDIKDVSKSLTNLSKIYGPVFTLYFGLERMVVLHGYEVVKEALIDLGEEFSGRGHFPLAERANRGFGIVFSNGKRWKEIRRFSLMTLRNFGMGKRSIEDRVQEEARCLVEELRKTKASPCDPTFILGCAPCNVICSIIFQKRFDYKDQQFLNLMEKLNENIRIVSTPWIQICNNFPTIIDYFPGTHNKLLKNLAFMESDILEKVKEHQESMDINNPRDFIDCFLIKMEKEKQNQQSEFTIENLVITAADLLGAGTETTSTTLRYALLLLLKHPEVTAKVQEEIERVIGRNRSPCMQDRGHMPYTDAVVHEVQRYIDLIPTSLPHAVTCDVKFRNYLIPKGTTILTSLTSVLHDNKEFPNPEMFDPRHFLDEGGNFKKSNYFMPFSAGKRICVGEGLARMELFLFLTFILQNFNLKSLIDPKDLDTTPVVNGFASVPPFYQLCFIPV
Method: as §1, with “For PK analysis, 5 mg/kg of JH4 in 10% DMSO, 5% […] solution were intravenously injected and 10 mg/kg of JH4 in 10% NMP and 90% PEG400 solution were orally delivered. At” for “At”

[2] = Liver microsomal stability, mouse; format: in vitro ADME; conditions: liver microsomes, read-out: Liver microsomal stability (% remaining during 30min)
Method: as §1, with “For PK analysis, 5 mg/kg of JH4 in 10% DMSO, 5% […] solution were intravenously injected and 10 mg/kg of JH4 in 10% NMP and 90% PEG400 solution were orally delivered. At” for “At”

[3] = Liver microsomal stability, rat; format: in vitro ADME; conditions: liver microsomes, read-out: Liver microsomal stability (% remaining during 30min)
Method: as §1, with “For PK analysis, 5 mg/kg of JH4 in 10% DMSO, 5% […] solution were intravenously injected and 10 mg/kg of JH4 in 10% NMP and 90% PEG400 solution were orally delivered. At” for “At”

[4] = Plasma protein binding, rat; format: in vitro ADME
Method: as §1

With `CC1(C)Oc2cc3oc(=O)ccc3cc2C[C@@H]1OC/C=C/c1ccccc1` [SLC-D011] the fraction unbound [1] was 0.001, the “mRNA expression of progerin” value (HGPS cells) was “without alteration of mRNA expression of progerin” and the CYP inhibition (CYP2D6) was 91.7. The CYP inhibition (CYP1A2) was 81.6, the CYP inhibition (CYP2C19) was 28.8 and the remaining at 0.5 h [2] was 59.7%. It also gave a remaining at 0.5 h [3] of 17.4% and a fraction unbound [4] of 0.002.
